Patent US12295970B2, “Imidazoquinoline compounds and prodrugs thereof” (UNIVERSITY OF KANSAS, priority 2019, dated 2025)

Key:
Assay type in all cases: cell-based
[1] = tested on: canine peripheral blood mononuclear cells (cPBMCs); assay: Cytokine production in canine PBMCs by ELISA (Example 2); conditions: for Cytokine IFNg / Cytokine IL-2 / Cytokine IL-6 / Cytokine IL-10 / Cytokine IL-12 / Cytokine TNFa: ± SD, 29 hours, ELISA, triplicate
Experimental: The imidazoquinolines were further screened for cytokine production in canine peripheral blood mononuclear cells (cPBMCs). […] TNFα and IL-12 were chosen as they are typically seen in a Th-1 cytokine response.
Peripheral blood from a healthy canine donor was obtained with appropriate informed consent of the owner and under approved institutional guidelines. Blood (8 mL per tube) was drawn via sterile venipuncture into a BD Vacutainer cell preparation tube containing sodium heparin (BD Biosciences). PBMCs were isolated within one hour following procurement by density gradient centrifugation according to the manufacturer protocol and resuspended to 2.22×10^6 cells/mL in sterile RPMI 1640 medium with L-glutamine (Gibco) supplemented with 100 U/mL penicillin, 100 μg/mL streptomycin (Corning) and 10% (v/v) heat-inactivated Fetalgro (RMBIO). Corning 3917, 96-well tissue culture treated plates were seeded with the PBMC suspension (180 μL/well), 20 μL of the serially diluted TLR agonists were added in triplicate to yield the desired concentrations in a 1% (v/v) DMSO cell suspension. Cells were incubated at 37° C. in 5% CO2 for 9 hours (FIGS. 3A-3D) or 29 hours (Table 2) after which supernatants were removed and frozen at −80° C. Cytokine secretion levels were measured by ELISA (Duoset, R&D Systems) according to the manufacturer protocol. Samples and standards (n=3) were thawed and plated onto a Maxisorp flat-bottom, 384-well plate (Thermo Scientific) using a BioTek Precision XS pipetting system. Cytokine concentrations were determined by a hyperbolic or four-parameter logistic non-linear regression of the recombinant standards and subsequent interpolation using Graphpad Prism 7.0.

[2] = target: T1, hTLR7 (Homo sapiens, UniProt Q9NYK1); assay: SEAP reporter assay for hTLR-7 activity (HEK-Blue hTLR7 cells); conditions: for EC50: ± SD, hTLR7 transfected HEK-Blue cells, Null subtracted, three independent measurements, 12 hours, read-out: EC50 TLR7
T1 construct: host or cells: HEK293 (HEK-Blue hTLR7)
T1 sequence (Q9NYK1 27-1049): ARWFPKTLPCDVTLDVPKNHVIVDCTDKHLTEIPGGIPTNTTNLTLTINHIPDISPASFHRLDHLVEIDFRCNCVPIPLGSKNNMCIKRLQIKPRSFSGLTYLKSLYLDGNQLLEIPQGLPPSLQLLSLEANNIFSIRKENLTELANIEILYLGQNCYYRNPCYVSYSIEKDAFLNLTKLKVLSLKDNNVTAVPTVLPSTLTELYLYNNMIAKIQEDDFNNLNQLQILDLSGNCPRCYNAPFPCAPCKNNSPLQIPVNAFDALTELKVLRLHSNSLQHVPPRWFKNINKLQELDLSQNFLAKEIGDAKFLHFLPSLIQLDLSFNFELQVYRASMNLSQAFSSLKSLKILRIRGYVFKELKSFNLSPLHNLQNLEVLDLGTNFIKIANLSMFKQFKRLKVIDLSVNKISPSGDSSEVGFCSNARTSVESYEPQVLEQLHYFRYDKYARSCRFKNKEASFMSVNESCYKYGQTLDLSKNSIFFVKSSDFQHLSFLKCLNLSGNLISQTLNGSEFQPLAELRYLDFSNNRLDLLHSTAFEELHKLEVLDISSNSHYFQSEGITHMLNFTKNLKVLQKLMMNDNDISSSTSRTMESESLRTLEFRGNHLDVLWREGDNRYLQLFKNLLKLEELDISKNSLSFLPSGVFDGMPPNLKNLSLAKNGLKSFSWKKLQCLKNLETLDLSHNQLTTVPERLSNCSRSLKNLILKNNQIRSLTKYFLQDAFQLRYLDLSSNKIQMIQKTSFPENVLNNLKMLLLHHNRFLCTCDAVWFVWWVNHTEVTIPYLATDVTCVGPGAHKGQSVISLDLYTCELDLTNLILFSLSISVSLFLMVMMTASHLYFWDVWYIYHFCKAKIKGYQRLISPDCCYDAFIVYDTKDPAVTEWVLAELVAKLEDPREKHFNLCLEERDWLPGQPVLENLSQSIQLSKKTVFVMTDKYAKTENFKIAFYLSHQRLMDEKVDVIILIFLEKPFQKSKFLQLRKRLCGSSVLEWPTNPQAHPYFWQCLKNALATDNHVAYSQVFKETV
Experimental: (§1) TLR activation induces NF-κB production and subsequent SEAP secretion, which is measured using HEK-Detection media (InvivoGen) containing a colorimetric substrate for SEAP (UV-Vis, 637 nm).
(§2) The experiments followed manufacturer protocol as follows: SEAP levels were measured via absorbance at 637 nm using HEK-Blue Detection cell culture medium (InvivoGen), which contains a SEAP-specific colorimetric substrate. Compound stock solutions were first diluted in sterile DMSO at a concentration of 10 mM. Lower concentrations were prepared by serial dilution of the initial 10 mM stock samples into sterile DMSO and these solutions (22 μL) were subsequently diluted into sterile H2O (198 μL) using a BioTek Precision XS pipetting system. HEK-Blue hTLR7, HEK-Blue hTLR8, Null 1−k, and Null 1 cell suspensions in sterile HEK-Blue Detection medium were prepared at a density of 220,000 cells per mL. Clear bottom, 96-well tissue culture treated plates (Corning) were seeded with hTLR7 and Null 1−k or hTLR8 and Null 1 cell suspensions (180 μL/well), after which 20 μL of the various sample concentrations in 10% v/v DMSO/H2O were added (20 μL) in quadruplicate wells to yield the desired testing concentration in 1% v/v DMSO cell suspension. Plates were incubated at 37° C. and 5% CO2 in the dark. Absorbance measurements were taken at 637 nm at 12 hours, 4 replicates per concentration point, per cell line (hTLR7, hTLR8, Null 1−k, Null 1). Three independent measurements on different days were performed for each analog.
(§3) Corresponding well absorbance values for each concentration tested were averaged with respect to days tested, and the average relative NF-κB induction (UV-Vis, 637 nm) of the null cell lines (Null 1-k or Null 1) were subtracted from the respective average TLR expressing cell line (hTLR7 or hTLR8) absorbance averages. […] The three independent, normalized averages for each analog were then pooled, and the data was fit using the Hill-Slope model (GraphPad Prism v7.0) using the non-linear fit from the [Agonist] vs. response—Variable Slope (four parameters) with a hill slope constrained to less than 3.

[3] = target: T2, hTLR8 (Homo sapiens, UniProt Q9NR97); assay: SEAP reporter assay for hTLR-8 activity (HEK-Blue hTLR8 cells); conditions: for EC50: ± SD, hTLR8 transfected HEK-Blue cells, Null subtracted, three independent measurements, 12 hours, >100 = no activity observed at 100 μM, read-out: EC50 TLR8
T2 construct: host or cells: HEK293 (HEK-Blue hTLR8)
T2 sequence (Q9NR97 27-1041): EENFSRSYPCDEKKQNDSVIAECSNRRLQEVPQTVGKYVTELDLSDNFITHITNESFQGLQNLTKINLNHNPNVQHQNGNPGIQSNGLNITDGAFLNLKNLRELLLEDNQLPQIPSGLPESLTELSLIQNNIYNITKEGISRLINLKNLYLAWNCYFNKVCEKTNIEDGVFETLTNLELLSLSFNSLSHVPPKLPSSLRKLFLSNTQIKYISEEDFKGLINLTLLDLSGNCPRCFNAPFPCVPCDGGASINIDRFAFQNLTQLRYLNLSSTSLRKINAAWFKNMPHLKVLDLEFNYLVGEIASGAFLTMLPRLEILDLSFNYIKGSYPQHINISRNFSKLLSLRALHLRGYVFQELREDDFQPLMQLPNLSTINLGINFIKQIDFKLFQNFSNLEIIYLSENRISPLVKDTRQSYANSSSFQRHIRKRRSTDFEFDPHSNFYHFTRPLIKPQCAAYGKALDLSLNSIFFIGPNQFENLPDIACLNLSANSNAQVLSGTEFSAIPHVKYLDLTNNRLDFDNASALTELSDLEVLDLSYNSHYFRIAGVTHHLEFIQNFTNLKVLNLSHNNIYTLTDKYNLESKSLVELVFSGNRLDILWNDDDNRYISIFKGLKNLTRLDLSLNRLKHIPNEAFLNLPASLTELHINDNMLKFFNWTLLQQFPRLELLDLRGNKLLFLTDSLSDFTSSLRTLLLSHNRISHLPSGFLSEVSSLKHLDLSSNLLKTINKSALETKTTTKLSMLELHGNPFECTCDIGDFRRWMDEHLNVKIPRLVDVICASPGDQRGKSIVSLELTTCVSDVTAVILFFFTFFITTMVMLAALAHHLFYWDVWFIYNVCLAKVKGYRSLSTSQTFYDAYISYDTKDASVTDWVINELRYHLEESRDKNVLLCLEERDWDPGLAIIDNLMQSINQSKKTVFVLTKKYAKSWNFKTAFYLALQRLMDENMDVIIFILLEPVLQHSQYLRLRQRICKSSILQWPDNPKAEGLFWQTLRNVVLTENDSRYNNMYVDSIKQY
Experimental: as §1, §2, §3

Structure (SMILES) | EC50 [2] [µM] | EC50 [3] [µM] | Cytokine IFNg ([1]; 20 μM) [pg/mL] | Cytokine IL-2 ([1]; 20 μM) [pg/mL] | Cytokine IL-6 ([1]; 20 μM) [pg/mL] | Cytokine IL-10 ([1]; 20 μM) [pg/mL] | Cytokine IL-12 ([1]; 20 μM) [pg/mL] | Cytokine TNFa ([1]; 20 μM) | agonist for TLR7 receptor (in words) [2] | agonist for TLR8 receptor (in words) [3] | cytokine induction (in words) [1] | IL-12 response (in words) ([1]; 20 μM) | TNFα response (in words) ([1]; 20 μM)
CCCCc1nc2c(N)nc3cc(Cl)ccc3c2n1CC(C)(C)O [Compound 8, 4-Amino-2-butyl-7-chloro-1-(2-hydroxy-2-methylpropyl)-1H-imidazo[4,5-c]quinoline] | 0.084 ± 0.007 | 1.5 ± 0.2 | 13 ± 10 | 55 ± 30 | 230 ± 44 | 7 ± 6 | 1700 ± 330 | 22 ± 4 pg/mL |  |  |  |  | 
CCCCc1nc2c(N)nc3cc(OC)ccc3c2n1CC(C)(C)O [Compound 5, 4-Amino-2-butyl-1-(2-hydroxy-2-methylpropyl)-7-methoxy-1H-imidazo[4,5-c]quinoline] | 0.081 ± 0.009 | 1.7 ± 0.3 | 14.5 ± 6 | 82 ± 56 | 290 ± 63 | 14 ± 2 | 2000 ± 160 | 64 ± 12 pg/mL |  |  |  |  | 
CCOCc1nc2c(N)nc3cc(Cl)ccc3c2n1CC(C)(C)O [Compound 9, 4-Amino-7-chloro-2-(ethoxymethyl)-1-(2-hydroxy-2-methylpropyl)-1H-imidazo[4,5-c]quinoline] | 0.63 ± 0.03 | 4.9 ± 0.6 | 16 ± 2 | 76 ± 59 | 320 ± 76 | 12 ± 3 | 1900 ± 130 | 70 ± 8 pg/mL |  |  |  |  | 
CC(C)Cn1cnc2c(N)nc3ccccc3c21 [Compound 1, imiquimod, reference compound] | 6.8 ± 0.8 | 25 ± 3 |  |  |  |  |  |  | agonists | agonists |  |  | 

Further lines, with some results ahead:

EC50 [2] [µM] | EC50 [3] [µM] | Structure (SMILES) | Cytokine IFNg ([1]; 20 μM) [pg/mL] | Cytokine IL-2 ([1]; 20 μM) [pg/mL] | Cytokine IL-6 ([1]; 20 μM) [pg/mL] | Cytokine IL-10 ([1]; 20 μM) [pg/mL] | Cytokine IL-12 ([1]; 20 μM) [pg/mL] | Cytokine TNFa ([1]; 20 μM) | agonist for TLR7 receptor (in words) [2] | agonist for TLR8 receptor (in words) [3] | cytokine induction (in words) [1] | IL-12 response (in words) ([1]; 20 μM) | TNFα response (in words) ([1]; 20 μM)
6.8 ± 0.7 | > 100 | CCOCc1nc2c(N)nc3cc(C#N)ccc3c2n1CC(C)C [Compound 11, 4-Amino-7-carbonitrile-2-(ethoxymethyl)-1-(2-methylpropyl)-1H-imidazo[4,5-c]quinoline] | 4 ± 3 | 57 ± 14 | 71 ± 20 | 6 ± 2 | 190 ± 62 | 7 ± 1 pg/mL |  |  |  |  | 
0.91 ± 0.09 | > 100 | CCOCc1nc2c(N)nc3cc(Cl)ccc3c2n1CC(C)C [Compound 7, 4-Amino-7-chloro-2-(ethoxymethyl)-1-(2-methylpropyl)-1H-imidazo[4,5-c]quinoline] | 5 ± 5 | 50 ± 22 | 280 ± 81 | 20 ± 1 | 781 ± 40 | 114 ± 25 pg/mL |  |  |  |  | 
0.99 ± 0.4 | > 100 | CCCCc1nc2c(N)nc3cc(C#N)ccc3c2n1CC(C)C [Compound 10, 4-Amino-2-butyl-7-carbonitrile-1-(2-methylpropyl)-1H-imidazo[4,5-c]quinoline] | 13 ± 5 | 60 ± 41 | 350 ± 95 | 37 ± 10 | 920 ± 170 | 10 ± 1 pg/mL |  |  |  |  | 
0.79 ± 0.23 | 3.9 ± 0.2 | CCCCc1nc2c(N)nc3cc(C#N)ccc3c2n1CC(C)(C)O [Compound 12, 4-Amino-2-butyl-7-carbonitrile-1-(2-hydroxy-2-methylpropyl)-1H-imidazo[4,5-c]quinoline] | 12 ± 4 | 45 ± 22 | 290 ± 77 | 14 ± 3 | 418 ± 72 | 44 ± 10 pg/mL |  |  |  |  | 
0.073 ± 0.005 |  | CCCCc1nc2c(N)nc3cc(O)ccc3c2n1CC(C)C [Compound 14, 4-Amino-2-butyl-7-hydroxy-1-(2-methylpropyl)-1H-imidazo[4,5-c]quinoline] | 9 ± 8 | 79 ± 19 | 330 ± 92 | 17 ± 3 | 102 ± 65 | 270 ± 70 - pg/mL |  |  | barely potentiates any cytokine induction | one of the lowest IL-12 responses | one of the highest TNFα responses
